According to patent publication US20250084039A1, “4-SUBSTITUTED AMINOISOQUINOLINE DERIVATIVES” (Purdue Research Foundation, priority 2016, published 2025):
Like-named read-outs stand apart in the source and are kept apart here.

Assays:
[1] = system: K562; test: IC50 proliferation assay (Alamar Blue, 72 h); assay type: cell-based
Description: (§1) IC50 proliferation assay—Cell lines and primary cells were seeded into 96-well plates the afternoon prior to treatment. Approximately 18 hours later, compounds were semi-serially diluted in dimethyl sulfoxide (DMSO) and then growth medium, and added to cells. Plates were incubated for 72 hours prior to addition of Alamar Blue (Life Technologies, Carlsbad, CA). Plates were read after 4 additional hours of incubation at 37° C. using a Bio-Tek Synergy HT plate reader (Bio-Tek, Winooski, VT). Data was analyzed and graphed using GraphPad Prism Software (Graphpad, La Jolla. CA).
(§2) IC50 (proliferation inhibition) against leukemia cell lines MV4-11 and K562. […] MiaPaca-2 (Pancreatic cell line), HLY-1 (Lymphoma cell line), MV4-11 (AML, cell line) and K562 (CML cell line).

[2] = system: MV4-11; test: IC50 proliferation assay (Alamar Blue, 72 h); assay type: cell-based; settings: read-out: IC50 (proliferation inhibition) Cell line - MV4-11
Description: as §1, §2

[3] = biological target: FGFR1 (Homo sapiens (Human), UniProt P11362); test: Reaction Biology HotSpot kinase assay; assay type: biochemical; settings: 500 nM compound; read-out: Percentage kinase inhibition FGFR1
Chain of FGFR1 (P11362 22-822): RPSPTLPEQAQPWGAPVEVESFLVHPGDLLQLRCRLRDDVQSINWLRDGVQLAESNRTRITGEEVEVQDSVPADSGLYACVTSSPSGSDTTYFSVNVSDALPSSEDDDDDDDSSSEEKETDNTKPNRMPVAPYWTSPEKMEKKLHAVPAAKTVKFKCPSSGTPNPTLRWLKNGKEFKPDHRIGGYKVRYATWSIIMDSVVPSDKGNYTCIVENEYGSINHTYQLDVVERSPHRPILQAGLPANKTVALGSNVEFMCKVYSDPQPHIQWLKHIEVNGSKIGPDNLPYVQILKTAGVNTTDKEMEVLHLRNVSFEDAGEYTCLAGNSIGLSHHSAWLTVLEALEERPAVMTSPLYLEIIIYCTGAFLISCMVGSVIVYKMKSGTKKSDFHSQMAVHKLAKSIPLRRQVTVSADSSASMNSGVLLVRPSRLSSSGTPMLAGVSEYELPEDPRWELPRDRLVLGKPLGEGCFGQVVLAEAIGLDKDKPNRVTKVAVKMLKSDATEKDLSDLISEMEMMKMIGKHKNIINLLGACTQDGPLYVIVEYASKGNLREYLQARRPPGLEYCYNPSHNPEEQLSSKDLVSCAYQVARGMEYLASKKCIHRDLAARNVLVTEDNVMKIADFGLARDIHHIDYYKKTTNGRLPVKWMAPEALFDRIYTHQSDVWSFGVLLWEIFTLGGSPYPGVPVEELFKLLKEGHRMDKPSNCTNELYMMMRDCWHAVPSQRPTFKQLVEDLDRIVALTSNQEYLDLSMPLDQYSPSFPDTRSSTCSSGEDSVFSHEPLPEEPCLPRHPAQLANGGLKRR
Description: (§3) The Reaction Biology Corporation (www.reactionbiology.com, Malvern, PA) HotSpot assay platform was used to measure kinase/inhibitor interactions exactly as previously described. Kinase and substrate were mixed in a buffer containing 20 mM HEPES pH 7.5, 10 mM MgCl2, 1 mM EGTA, 0.02% Brij35, 0.02 mg/mL BSA, 0.1 mM Na3VO4, 2 mM DTT and 1% DMSO. Single-dose of compounds (500 nM) were then added to each reaction mixture. After 20-minute incubation. ATP (Sigma) and [γ-^33P] ATP (Perkin Elmer) were added at a final total concentration of 100 μM for addition 2 hours at room temperature, followed by spotting onto P81 ion exchange cellulose chromatography paper (Whatman, Inc.). […] Percent remaining kinase activity of a vehicle (DMSO) containing kinase reaction was calculated for each kinase/inhibitor pair using Prism 5 (GraphPad).
as §3, with “1” for “DTT”, “incubation,” for “incubation.”

[4] = biological target: FLT3 (Homo sapiens (Human), UniProt P36888); test: Reaction Biology HotSpot kinase assay; assay type: biochemical; settings: 500 nM compound; for inhibition at 0.5 µM: read-out: % inhibition of FLT3 activity
Chain of FLT3 (P36888 27-993): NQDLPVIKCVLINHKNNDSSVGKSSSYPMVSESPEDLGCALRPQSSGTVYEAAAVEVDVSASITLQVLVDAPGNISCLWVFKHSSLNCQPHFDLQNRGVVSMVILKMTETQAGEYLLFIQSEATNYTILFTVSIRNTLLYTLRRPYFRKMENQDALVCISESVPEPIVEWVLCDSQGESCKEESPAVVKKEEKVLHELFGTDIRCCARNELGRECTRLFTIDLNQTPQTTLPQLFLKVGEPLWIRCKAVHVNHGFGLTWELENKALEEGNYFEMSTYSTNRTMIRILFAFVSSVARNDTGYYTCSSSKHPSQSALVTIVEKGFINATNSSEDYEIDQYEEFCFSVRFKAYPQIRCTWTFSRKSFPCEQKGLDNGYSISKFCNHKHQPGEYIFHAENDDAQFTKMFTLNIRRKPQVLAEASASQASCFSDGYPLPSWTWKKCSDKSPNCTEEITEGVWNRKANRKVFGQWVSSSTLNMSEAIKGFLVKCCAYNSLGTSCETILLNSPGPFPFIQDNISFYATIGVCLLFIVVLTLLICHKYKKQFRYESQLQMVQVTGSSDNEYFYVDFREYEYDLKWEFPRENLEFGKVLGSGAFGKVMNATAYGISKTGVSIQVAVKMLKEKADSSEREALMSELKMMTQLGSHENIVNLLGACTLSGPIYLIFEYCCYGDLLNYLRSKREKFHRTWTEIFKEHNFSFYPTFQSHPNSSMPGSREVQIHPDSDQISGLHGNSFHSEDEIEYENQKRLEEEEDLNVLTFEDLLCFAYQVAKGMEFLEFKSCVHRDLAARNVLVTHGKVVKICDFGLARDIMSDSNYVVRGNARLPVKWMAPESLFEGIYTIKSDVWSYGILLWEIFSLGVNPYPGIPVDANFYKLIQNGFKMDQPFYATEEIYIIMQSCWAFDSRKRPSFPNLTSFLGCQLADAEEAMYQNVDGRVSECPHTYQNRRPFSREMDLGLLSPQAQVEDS
Description: as §3
as §3, with “1” for “DTT”, “incubation,” for “incubation.”

[5] = biological target: c-kit (Homo sapiens (Human), UniProt P10721); test: Reaction Biology HotSpot kinase assay; assay type: biochemical; settings: 500 nM compound, 100 μM radiolabeled ATP
Chain of c-kit (P10721 26-976): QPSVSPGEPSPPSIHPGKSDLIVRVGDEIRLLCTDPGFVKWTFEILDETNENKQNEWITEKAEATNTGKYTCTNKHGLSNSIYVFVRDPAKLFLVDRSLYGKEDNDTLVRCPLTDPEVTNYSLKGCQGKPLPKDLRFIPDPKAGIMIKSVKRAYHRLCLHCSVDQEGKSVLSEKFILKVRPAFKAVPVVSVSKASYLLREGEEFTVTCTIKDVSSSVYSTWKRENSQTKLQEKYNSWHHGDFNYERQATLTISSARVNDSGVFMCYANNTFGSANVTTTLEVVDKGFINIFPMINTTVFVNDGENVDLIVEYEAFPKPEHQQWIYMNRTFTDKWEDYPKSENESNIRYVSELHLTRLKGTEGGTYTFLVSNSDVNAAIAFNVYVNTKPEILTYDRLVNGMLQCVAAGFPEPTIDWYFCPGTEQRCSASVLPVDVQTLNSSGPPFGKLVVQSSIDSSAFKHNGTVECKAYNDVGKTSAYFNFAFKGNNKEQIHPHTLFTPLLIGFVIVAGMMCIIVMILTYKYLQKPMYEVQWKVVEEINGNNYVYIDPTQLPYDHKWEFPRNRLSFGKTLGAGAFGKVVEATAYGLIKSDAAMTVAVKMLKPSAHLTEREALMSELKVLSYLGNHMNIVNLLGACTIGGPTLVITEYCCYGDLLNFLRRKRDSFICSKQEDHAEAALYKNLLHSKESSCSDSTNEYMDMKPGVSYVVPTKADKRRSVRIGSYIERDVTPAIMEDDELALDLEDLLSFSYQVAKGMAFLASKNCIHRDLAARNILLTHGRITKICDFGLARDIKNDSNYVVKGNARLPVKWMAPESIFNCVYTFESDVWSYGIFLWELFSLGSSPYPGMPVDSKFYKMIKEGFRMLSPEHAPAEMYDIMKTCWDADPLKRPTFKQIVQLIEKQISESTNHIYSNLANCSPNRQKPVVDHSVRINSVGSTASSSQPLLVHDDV
Description: as §3
as §3, with “1” for “DTT”, “incubation,” for “incubation.”

[6] = biological target: c-Src (Homo sapiens (Human), UniProt P12931); test: Reaction Biology HotSpot kinase assay; assay type: biochemical; settings: 500 nM compound; read-out: Percentage kinase inhibition c-Src
Chain of c-Src (P12931 whole entry, looked up): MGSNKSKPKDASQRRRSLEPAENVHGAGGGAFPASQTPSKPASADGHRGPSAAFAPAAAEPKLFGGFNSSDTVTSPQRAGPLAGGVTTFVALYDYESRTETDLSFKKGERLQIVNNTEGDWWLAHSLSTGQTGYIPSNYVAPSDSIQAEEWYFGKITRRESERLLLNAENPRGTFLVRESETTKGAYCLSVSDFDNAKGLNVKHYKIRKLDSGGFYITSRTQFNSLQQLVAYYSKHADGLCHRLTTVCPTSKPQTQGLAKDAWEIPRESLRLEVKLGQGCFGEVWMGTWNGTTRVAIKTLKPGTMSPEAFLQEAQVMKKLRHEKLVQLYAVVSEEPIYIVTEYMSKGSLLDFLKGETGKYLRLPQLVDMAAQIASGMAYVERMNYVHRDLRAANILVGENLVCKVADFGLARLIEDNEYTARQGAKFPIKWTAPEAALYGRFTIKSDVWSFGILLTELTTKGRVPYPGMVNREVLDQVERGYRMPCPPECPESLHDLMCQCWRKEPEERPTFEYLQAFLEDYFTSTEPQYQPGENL
Description: as §3
as §3, with “1” for “DTT”, “incubation,” for “incubation.”

[7] = system: MV4-11; test: IC50 determination (proliferation assay, CellTiter-Blue); assay type: cell-based
Description: (§4) Cell lines were seeded into 96-well plates the afternoon prior to treatment. Approximately 18 hours later, compounds were diluted in dimethyl sulfoxide (DMSO) and added to cells. Plates were incubated for 72 hours and cells viability determined with CellTiter-Blue Cell Viability Assay (Promega, Madison, WI). Plates were read after 4 additional hours of incubation at 37° C. using plate reader (Bio-Tek, Winooski. VT). Data was analyzed and graphed using GraphPad Prism Software (Graphpad. La Jolla, CA). […]

[8] = system: MOLM14; test: as above; assay type: cell-based
Description: as §4

[9] = system: MOLM14; test: Anti-proliferative effects in leukemia panel; assay type: cell-based; settings: for IC50: Homo sapiens, MOLM-14
Description: Molm-14 cells were the kind gift of Dr. Mark Levis from Johns Hopkins University. THP-1, MV4-11, K-562 and MRC-5A cells were purchased from ATCC (ATCC, Manassas, VA). All cell lines were grown in 37° C. with 5% CO2 atmosphere with RPMI 1640 (Life technologies, Carlsbad. CA) supplemented with heat-inactivated 10% (V/V) fetal bovine serum. Cell lines were grown and maintained according to ATCC recommendations.
as §1, with “Cell” for “IC50 proliferation assay—Cell”, “lines” for “lines and primary cells”, “Technologies.” for “Technologies,”, “Winooski.” for “Winooski,”, “(Graphpad.” for “(Graphpad,”, “Jolla,” for “Jolla.”

[10] = biological target: TRKC (Homo sapiens (Human), UniProt Q16288); test: Reaction Biology HotSpot kinase assay; assay type: biochemical; settings: 500 nM compound, 100 μM radiolabeled ATP
Chain of TRKC (Q16288 32-839): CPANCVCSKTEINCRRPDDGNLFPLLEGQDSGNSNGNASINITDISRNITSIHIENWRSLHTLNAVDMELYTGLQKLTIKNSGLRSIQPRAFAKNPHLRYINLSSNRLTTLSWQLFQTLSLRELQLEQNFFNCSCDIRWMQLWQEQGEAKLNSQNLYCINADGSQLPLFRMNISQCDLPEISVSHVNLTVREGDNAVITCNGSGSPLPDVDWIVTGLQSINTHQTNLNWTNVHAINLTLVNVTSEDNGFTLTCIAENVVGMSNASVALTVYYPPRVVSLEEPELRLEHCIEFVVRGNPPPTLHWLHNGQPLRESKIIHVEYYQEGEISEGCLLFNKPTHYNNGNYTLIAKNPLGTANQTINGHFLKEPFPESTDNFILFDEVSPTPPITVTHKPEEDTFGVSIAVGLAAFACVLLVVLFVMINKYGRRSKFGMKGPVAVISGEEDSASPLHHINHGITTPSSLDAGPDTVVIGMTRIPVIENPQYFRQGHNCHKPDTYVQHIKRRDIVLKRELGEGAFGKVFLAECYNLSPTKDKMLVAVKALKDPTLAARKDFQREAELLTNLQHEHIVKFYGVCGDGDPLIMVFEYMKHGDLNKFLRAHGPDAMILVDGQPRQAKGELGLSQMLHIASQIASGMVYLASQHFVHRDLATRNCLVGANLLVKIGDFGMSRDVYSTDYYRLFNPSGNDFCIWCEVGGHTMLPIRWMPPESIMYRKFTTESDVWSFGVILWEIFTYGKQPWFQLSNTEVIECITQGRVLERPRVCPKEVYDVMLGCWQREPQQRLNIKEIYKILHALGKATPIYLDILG
Description: as §3
as §3, with “1” for “DTT”, “incubation,” for “incubation.”

[11] = system: MV4-11; test: Anti-proliferative effects in leukemia panel; assay type: cell-based; settings: for IC50: Homo sapiens, MV4-11
Description: Molm-14 cells were the kind gift of Dr. Mark Levis from Johns Hopkins University. […] Cell lines were grown and maintained according to ATCC recommendations.
as §1, with “Cell” for “IC50 proliferation assay—Cell”, “lines” for “lines and primary cells”, “Technologies.” for “Technologies,”, “Winooski.” for “Winooski,”, “(Graphpad.” for “(Graphpad,”, “Jolla,” for “Jolla.”

[12] = system: MV4-11; test: Activity against AML cell line MV4-11 (CellTiter-Blue, 72 h); assay type: cell-based; settings: Homo sapiens, MV4-11, 72 h; read-out: IC50 against MV4-11/uM
Description: Cells were added to 96 well plates at 2000 cells per well for adherent lines and 4000 cells per well for suspension lines and kept in an incubator overnight. The following day the plates were treated with compounds to give rise to the final concentrations of; 100 μM, 10 μM, 5 μM 1 μM, 500 nM, 100 nM, 10 nM, […]. The plates were then stored in the incubator for 72 hours. On the third day the cells were assayed with 20 μL of CellTiter—Blue Cell Viability Assay per well and were incubated for 4 hours. After 4 hours' fluorescence intensity was taken on a plate reader: Excitation: 560/10 Emission: 590/10. IC50 analysis was performed on GraphPad Prism 7.

[13] = system: HCT116; test: Proliferation inhibition at single concentration (CellTiter-Blue); assay type: cell-based; settings: 1 μM compound
[14] = system: MV-4-11; test: as above; assay type: cell-based; settings: 1 μM compound
[15] = system: MCF-7; test: as above; assay type: cell-based; settings: 1 μM compound
Description: (§5) Plates were then treated with compound diluted in dimethyl sulfoxide (DMSO) as well as a DMSO control the following day for 72 hours. After this time the plates were then treated with 10 μL of CellTiter-Blue Cell Viability Assay (Promega, Madison, WI) for 4 hours. Then the plates were read on a plate reader (Bio-Tek, Winooski, VT). Data was analyzed on Excel as a percent of the DMSO vehicle.
(§6) Antiproliferative activities against AML cell line, MV4-11 (a FLT3-driven cell line) and three other solid tumors (MCF7, breast, HCT116, colon and HeLa) have been investigated (Tables 6A and 6B and FIG. 10).

[16] = system: HeLa; test: as above; assay type: cell-based; settings: 1 μM compound
Description: as §5, §6

[17] = Homo sapiens, K562, 72 h, read-out: IC50 (proliferation inhibition) Cell line - K562
[18] = Homo sapiens, K562, Table 18, read-out: Inhibition of proliferation of K562 cell lines (CML)
[19] = read-out: Anti-proliferative effects in leukemia panel (μM) MV4-11

Structure (SMILES)	inhibition at 0.5 µM [5] [%]	IC50 [9] [µM]	inhibition at 0.5 µM [10] [%]	anti-proliferative activity in words, MV4-11 / AML cell lines [11]	IC50 [11, 19] [µM]	further results
Cc1ccc(C(=O)Nc2ccc(CN3CCN(C)CC3)c(C(F)(F)F)c2)cc1C#Cc1c(N)ncc2c(Cl)cccc12 [HSN353, 3-((3-amino-8-chloroisoquinolin-4-yl)ethynyl)-4-methyl-N-(4-((4-methylpiperazin-1-yl)methyl)-3-(trifluoromethyl)phenyl)benzamide]	82	–	–	–	–	IC50 [1, 17]: 5 nM; IC50 [1, 18]: 5.2 ± 0.02 nM; IC50 ([2]; Homo sapiens, MV4-11, 72 h): 3 nM; inhibition at 0.5 µM [3]: 93%; inhibition at 0.5 µM [4]: 94%; inhibition at 0.5 µM [6]: 98%; IC50 ([7]; Homo sapiens, MV4-11): 3.45 ± 0.04 nM; IC50 ([8]; Homo sapiens, MOLM-14): 1.97 ± 0.1 nM
C(#Cc1cncc2ccccc12)c1ccc(C2=NCCN2)cc1 [HSM1813]	39	> 5	17	not a potent inhibitor	> 5	–
Nc1nnc2ccccc2c1C#Cc1ccc(C2=NCCN2)cc1 [HSM1796]	3	> 5	7	ineffective	> 5	–
CC1(COc2ccc3c(c2)ncn3-c2ccc3cccc(N4CCC(N)CC4)c3n2)COC1 [Crenolanib, reference compound]	–	0.004	–	–	0.005 ± 0.001	inhibition at 0.5 µM [4]: 99%; IC50 ([11]; read-out: anti-proliferative IC50): 0.005 µM
Cc1ccc(C(=O)NCc2ccc(OCCN(C)C)cc2)cc1C#Cc1cc(N)nc2ccccc12 [HSN316, 3-((2-aminoquinolin-4-yl)ethynyl)-N-(4-(2-(dimethylamino)ethoxy)benzyl)-4-methylbenzamide]	–	–	–	–	–	IC50 [1, 17]: 759 nM; IC50 [1, 18]: 913 ± 0.1 nM; IC50 ([2]; Homo sapiens, MV4-11, 72 h): 759 nM
Nc1ncc2[nH]ccc2c1C#Cc1ccc(C2=NCCN2)cc1 [HSM1781]	–	> 5	–	ineffective	> 5	–
Nc1ncc2ccc(Cl)cc2c1C#Cc1ccc(C2=NCCN2CCN2CCCCC2)cc1 [HSM1721]	80	0.3	52	–	0.08 ± 0.02	IC50 [12]: 0.015 µM
N#Cc1ccc(C#Cc2c(N)ncc3ccc(Cl)cc23)cc1 [HSM1611, 4-((3-amino-6-chloroisoquinolin-4-yl)ethynyl)benzonitrile]	63	> 5	16	ineffective	> 5	anti-proliferative activity in words, MOLM-14 [9]: ineffective; IC50 [12]: 0.84 µM
CC1(C)CNC(c2ccc(C#Cc3c(N)ncc4ccc(Cl)cc34)cc2)=N1 [HSM1743]	78	0.3	44	–	0.07 ± 0.02	–
Cc1ccc(C(=O)NCc2ccc(OCCN(C)C)cc2)cc1C#Cc1c(N)ncc2ccc(Cl)cc12 [HSN315]	–	–	–	–	–	IC50 ([1]; 72 h, read-out: IC50 (proliferation inhibition) Cell line - K562): 203 nM; IC50 ([1]; Table 18, read-out: Inhibition of proliferation of K562 cell lines (CML)): 203 ± 0.1 nM; IC50 ([2]; 72 h): 540 nM; Percent inhibition of proliferation HCT116 [13]: 66%; % inhibition of FLT3 activity [4]: 32%; Percent inhibition of proliferation MV-4-11 [14]: 83%; IC50 [7]: 549 ± 7.4 nM; proliferation inhibition in words, MV4-11 / AML [7]: only moderate inhibitors; IC50 [8]: 523 ± 6.4 nM; Percent inhibition of proliferation MCF-7 [15]: 100%; Percent inhibition of proliferation HeLa [16]: 100%
Nc1ncc2ccc(Cl)cc2c1C#Cc1ccc(C2=NC(C3CC3)CN2)cc1 (centres unmarked) [HSM1703]	60	0.1	49	–	0.3 ± 0.2	–
N=C(NO)c1ccc(C#Cc2c(N)ncc3ccc(Cl)cc23)cc1 [HSM1820]	86	0.05	74	–	0.04 ± 0.01	–
Nc1ncc(C#Cc2ccc(C3=NCCN3)cc2)c2ccccc12 [HSM1795, 4-((4-(4,5-dihydro-1H-imidazol-2-yl)phenyl)ethynyl)isoquinolin-1-amine]	–	–	–	–	–	IC50 ([2]; Homo sapiens, MV4-11, 72 h): 100 nM
N=C(NO)c1cccc(C#Cc2c(N)ncc3ccc(Cl)cc23)c1 [HSM1819]	82	0.06	80	very potent	0.02 ± 0.01	–
Nc1nccc(Cl)c1C#Cc1ccc(C2=NCCN2)cc1 [HSM1798]	15	> 5	11	ineffective	> 5	–
CC(C)(C)c1cc(NC(=O)Nc2ccc(-c3cn4c(n3)sc3cc(OCCN5CCOCC5)ccc34)cc2)no1 [Quizartinib, quizartinib, reference compound]	–	0.001 ± 0.001	–	–	0.001 ± 0.001	–
